IC50 data for 24 compounds are collected here from patent US9499547B2 (BAYER INTELLECTUAL PROPERTY GMBH, priority 2011, dated 2016).

One may read the IC50 as the midpoint of a concentration-inhibition curve. A high value points to weaker potency.

In assay [1] the target is T1, human full-length MKNK1 (Homo sapiens (Human), UniProt Q9BUB5, T344D). The assay can be described thus: MKNK1 kinase high ATP assay (TR-FRET-based). Type of assay: biochemical. The note with it: 2 mM ATP final conc.; 15 min preincubation with enzyme. As to the method: MKNK1 Kinase High ATP Assay
T1 sequence (Q9BUB5 other isoform, or with tags, fused parts or gaps T344D): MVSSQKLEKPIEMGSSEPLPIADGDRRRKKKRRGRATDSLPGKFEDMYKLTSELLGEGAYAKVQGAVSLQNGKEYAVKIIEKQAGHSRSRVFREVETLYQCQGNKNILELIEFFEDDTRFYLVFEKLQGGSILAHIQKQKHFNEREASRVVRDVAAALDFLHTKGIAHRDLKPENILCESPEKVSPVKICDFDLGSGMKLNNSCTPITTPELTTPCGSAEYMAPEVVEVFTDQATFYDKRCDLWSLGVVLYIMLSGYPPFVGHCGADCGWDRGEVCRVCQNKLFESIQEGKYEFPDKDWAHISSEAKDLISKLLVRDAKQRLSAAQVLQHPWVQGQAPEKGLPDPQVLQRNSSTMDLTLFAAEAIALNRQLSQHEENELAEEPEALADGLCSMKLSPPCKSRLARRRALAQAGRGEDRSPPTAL
MKNK1-inhibitory activity at high ATP of compounds of the present invention after their preincubation with MKNK1 was quantified employing the TR-FRET-based MKNK1 high ATP assay as described in the following paragraphs.
As substrate for the kinase reaction the biotinylated peptide biotin-Ahx-[…] (C-terminus in amide form) was used, which can be purchased e.g. from the company Biosyntan (Berlin-Buch, Germany).
(§1) For the assay 50 nL of a 100 fold concentrated solution of the test compound in DMSO was pipetted into a black low volume 384 well microtiter plate (Greiner Bio-One, Frickenhausen, Germany), 2 μL of a solution of MKNK1 in aqueous assay buffer [50 mM HEPES pH 7.5, 5 mM magnesium chloride, 1.0 mM dithiothreitol, 0.005% (v/v) Nonidet-P40 (Sigma)] was added and the mixture was incubated for 15 min at 22° C. to allow pre-binding of the test compounds to the enzyme before the start of the kinase reaction. Then the kinase reaction was started by the addition of 3 μL of a solution of adenosine-tri-phosphate (ATP, 3.3 mM=>final conc. in the 5 μL assay volume is 2 mM) and substrate (0.1 μM=>final conc. in the 5 μL assay volume is 0.06 μM) in assay buffer and the resulting mixture was incubated for a reaction time of 30 min at 22° C. The concentration of MKNK1 was adjusted depending of the activity of the enzyme lot and was chosen appropriate to have the assay in the linear range, typical concentrations were in the range of 0.003 μg/mL. The reaction was stopped by the addition of 5 μL of a solution of TR-FRET detection reagents (5 nM streptavidine-XL665 [Cisbio Bioassays, Codolet, France] and 1 nM anti-ribosomal protein S6 (pSer236)-antibody from Invitrogen [#44921G] and 1 nM LANCE EU-W1024 labeled ProteinG [Perkin-Elmer, product no. AD0071]) in an aqueous EDTA-solution (100 mM EDTA, 0.1% (w/v) bovine serum albumin in 50 mM HEPES pH 7.5).
(§2) The resulting mixture was incubated for 1 h at 22° C. to allow the formation of complex between the phosphorylated biotinylated peptide and the detection reagents. Subsequently the amount of phosphorylated substrate was evaluated by measurement of the resonance energy transfer from the Eu-chelate to the streptavidine-XL. Therefore, the fluorescence emissions at 620 nm and 665 nm after excitation at 350 nm were measured in a TR-FRET reader, e.g. a Rubystar (BMG Labtechnologies, Offenburg, Germany) or a Viewlux (Perkin-Elmer). The ratio of the emissions at 665 nm and at […] was taken as the measure for the amount of phosphorylated substrate. The data were normalised (enzyme reaction without inhibitor=0% inhibition, all other assay components but no enzyme=100% inhibition).

Assay [2] deals with T1, human full-length MKNK1. The assay can be described thus: MKNK1 kinase assay (MKNK1 TR-FRET assay). Type of assay: biochemical. The note with it: 10 μM ATP final conc.; 15 min preincubation with enzyme. As to the method:
MKNK1-inhibitory activity of compounds of the present invention was quantified employing the MKNK1 TR-FRET assay as described in the following paragraphs.
As substrate for the kinase reaction the biotinylated peptide biotin-Ahx-[…] (C-terminus in amide form) was used which can be purchased e.g. form the company Biosyntan (Berlin-Buch, Germany).
as §1, with “16.7 μM=>final” for “3.3 mM=>final”, “10 μM)” for “2 mM)”, “45” for “30”, “0.05 μg/ml.” for “0.003 μg/mL.”
as §2
(In general: Time-resolved FRET reads energy transfer from a long-lived donor to a nearby acceptor.)

In the case of `N[C@H]1C[C@H](Oc2ccc3ncc(-c4cc5cc(F)ccc5o4)n3n2)C1` [Example 39, trans-3-{[3-(5-Fluoro-1-benzofuran-2-yl)imidazo[1,2-b]pyridazin-6-yl]oxy}-cyclobutanamine], the IC50 in assay [1] was 6 nM; in assay [2], 3 nM.
Consider `N[C@H](COc1ccc2ncc(-c3cc4ccccc4o3)n2n1)c1ccccc1` [Example 17, (1S)-2-{[3-(1-Benzofuran-2-yl)imidazo[1,2-b]pyridazin-6-yl]oxy}-1-phenylethanamine], for which the IC50 in assay [1] worked out at 10 nM; in assay [2], 6 nM.
Taken in the same sequence, the figures for `N[C@H]1C[C@H](Oc2ccc3ncc(-c4cc5cc(Cl)ccc5o4)n3n2)C1` [Example 37, trans-3-{[3-(5-Chloro-1-benzofuran-2-yl)imidazo[1,2-b]pyridazin-6-yl]oxy}-cyclobutanamine] were 5 nM and 4 nM.
In the case of `NCC(COc1ccc2ncc(-c3cc4ccccc4o3)n2n1)c1ccccc1` (stereo not drawn) [Example 52, 3-{[3-(1-Benzofuran-2-yl)imidazo[1,2-b]pyridazin-6-yl]oxy}-2-phenylpropan-1-amine], the IC50 was 30 nM in assay [1] and 17 nM in assay [2].
Taken in the same sequence, the figures for `NCC(Oc1ccc2ncc(-c3cc4ccccc4o3)n2n1)C1CCOC1` (stereo not drawn) [Example 35, 2-{[3-(1-Benzofuran-2-yl)imidazo[1,2-b]pyridazin-6-yl]oxy}-2-(tetrahydrofuran-3-yl)ethanamine] were 52 nM and 32 nM.
Taken in the same sequence, the figures for `CC(C)(N)CCOc1ccc2ncc(-c3cc4ccccc4o3)n2n1` [Example 14, 4-{[3-(1-Benzofuran-2-yl)imidazo[1,2-b]pyridazin-6-yl]oxy}-2-methylbutan-2-amine] were 39 nM and 20 nM.
For `COc1ccc2oc(-c3cnc4ccc(OCCCN)nn34)cc2c1` [Example 9, 3-{[3-(5-Methoxy-1-benzofuran-2-yl)imidazo[1,2-b]pyridazin-6-yl]oxy}propan-1-amine], in that order: 22 nM and 7 nM.
`C[C@@H](N)COc1ccc2ncc(-c3cc4cc(Cl)ccc4o3)n2n1` [Example 43, (2R)-1-{[3-(5-Chloro-1-benzofuran-2-yl)imidazo[1,2-b]pyridazin-6-yl]oxy}-propan-2-amine]: the IC50 in assay [1] was found to be 62 nM; in assay [2] it was 33 nM.
For `CC(C)(N)COc1ccc2ncc(-c3cc4ccccc4o3)n2n1` [Example 29, 1-{[3-(1-Benzofuran-2-yl)imidazo[1,2-b]pyridazin-6-yl]oxy}-2-methylpropan-2-amine], the IC50 amounted to 59 nM in assay [1] and 17 nM in assay [2].
As to `C[C@H](N)COc1ccc2ncc(-c3cc4ccccc4o3)n2n1` [Example 7, (2S)-1-{[3-(1-Benzofuran-2-yl)imidazo[1,2-b]pyridazin-6-yl]oxy}propan-2-amine], the figures for the IC50 in assay [1] and in assay [2] were 18 nM and 7 nM, respectively.
Taken in the same sequence, the figures for `N[C@H](COc1ccc2ncc(-c3cc4c(F)cccc4o3)n2n1)c1ccccc1` [Example 46, (1S)-2-{[3-(4-Fluoro-1-benzofuran-2-yl)imidazo[1,2-b]pyridazin-6-yl]oxy}-1-phenylethanamine] were 67 nM and 36 nM.
For `NCCCOc1ccc2ncc(-c3cc4ccccc4o3)n2n1` [Example 11, 3-{[3-(1-Benzofuran-2-yl)imidazo[1,2-b]pyridazin-6-yl]oxy}propan-1-amine], in that order: 24 nM and 8 nM.
For `CC(CN)COc1ccc2ncc(-c3cc4ccccc4o3)n2n1` (stereo not drawn) [Example 40, 3-{[3-(1-Benzofuran-2-yl)imidazo[1,2-b]pyridazin-6-yl]oxy}-2-methylpropan-1-amine], in that order: 18 nM and 9 nM.
For `COc1cccc2oc(-c3cnc4ccc(OCCCCN)nn34)cc12` [Example 1, 4-{[3-(4-Methoxy-1-benzofuran-2-yl)imidazo[1,2-b]pyridazin-6-yl]oxy}butan-1-amine], the IC50 in assay [1] came to 5 nM; in assay [2], 3 nM.
As to `NCCCCOc1ccc2ncc(-c3cc4ccccc4o3)n2n1` [Example 8, 4-{[3-(1-Benzofuran-2-yl)imidazo[1,2-b]pyridazin-6-yl]oxy}butan-1-amine], the values for the IC50 in assay [1] and in assay [2] were 17 nM and 7 nM, respectively.
For `C[C@H](CN)Oc1ccc2ncc(-c3cc4cc(Cl)ccc4o3)n2n1` [Example 15, (2R)-2-{[3-(5-Chloro-1-benzofuran-2-yl)imidazo[1,2-b]pyridazin-6-yl]oxy}-propan-1-amine], in that order: 197 nM and 36 nM.
Taken in the same sequence, the figures for `N[C@H]1C[C@H](Oc2ccc3ncc(-c4cc5ccccc5o4)n3n2)C1` [Example 2, trans-3-{[3-(1-Benzofuran-2-yl)imidazo[1,2-b]pyridazin-6-yl]oxy}cyclobutanamine] were 6 nM and 5 nM.
For `N[C@H]1C[C@@H](Oc2ccc3ncc(-c4cc5ccccc5o4)n3n2)C1` [Example 3, cis-3-{[3-(1-Benzofuran-2-yl)imidazo[1,2-b]pyridazin-6-yl]oxy}cyclobutanamine], in that order: 17 nM and 4 nM.
With `N[C@H](COc1ccc2ncc(-c3cc4cc(Cl)ccc4o3)n2n1)c1ccccc1` [Example 19, (1S)-2-{[3-(5-Chloro-1-benzofuran-2-yl)imidazo[1,2-b]pyridazin-6-yl]oxy}-1-phenylethanamine], the IC50 was 111 nM in assay [1] and 25 nM in assay [2].
Taken in the same sequence, the figures for `N[C@H]1C[C@H](COc2ccc3ncc(-c4cc5ccccc5o4)n3n2)C1` [Example 22, trans-3-({[3-(1-Benzofuran-2-yl)imidazo[1,2-b]pyridazin-6-yl]oxy}methyl)cyclobutanamine] were 17 nM and 6 nM.
For `COc1cccc2oc(-c3cnc4ccc(OCCN)nn34)cc12` [Example 5, 2-{[3-(4-Methoxy-1-benzofuran-2-yl)imidazo[1,2-b]pyridazin-6-yl]oxy}ethanamine], the IC50 was determined as 18 nM in assay [1] and 6 nM in assay [2].
Taken in the same sequence, the figures for `COc1cccc2oc(-c3cnc4ccc(OCC(N)C5CC5)nn34)cc12` (stereo not drawn) [Example 41, 1-Cyclopropyl-2-{[3-(4-methoxy-1-benzofuran-2-yl)imidazo[1,2-b]pyridazin-6-yl]oxy}ethanamine] were 27 nM and 12 nM.
With `NCC1(COc2ccc3ncc(-c4cc5ccccc5o4)n3n2)COC1` [Example 44, 1-[3-({[3-(1-Benzofuran-2-yl)imidazo[1,2-b]pyridazin-6-yl]oxy}methyl)oxetan-3-yl]methanamine], the IC50 was 63 nM in assay [1] and 52 nM in assay [2].
Taken in the same sequence, the figures for `NC1(COc2ccc3ncc(-c4cc5ccccc5o4)n3n2)CC1` [Example 51, 1-({[3-(1-Benzofuran-2-yl)imidazo[1,2-b]pyridazin-6-yl]oxy}methyl)cyclopropanamine] were 74 nM and 29 nM.
